Measured values as given in ChEMBL document CHEMBL5465560, “Selectivity Literature for EUbOPEN Chemogenomic Library” (2024).

Experiments:
[1] = target: Receptor tyrosine-protein kinase erbB-4 (Homo sapiens, UniProt Q15303); assay: Selectivity interaction (Ambit KINOMEscan and KiNATiv profiling in Jurkat cells) EUB0000090b ERBB4; type: cell-based; conditions: at 1 µM
[2] = target: T1, MAP kinase-activated protein kinase 5 (Homo sapiens) (UniProt Q8IW41); assay: Selectivity interaction (Kinase panel (literature)) EUB0001199aCl MAPKAPK5; conditions: at 1 µM
T1 sequence (whole entry): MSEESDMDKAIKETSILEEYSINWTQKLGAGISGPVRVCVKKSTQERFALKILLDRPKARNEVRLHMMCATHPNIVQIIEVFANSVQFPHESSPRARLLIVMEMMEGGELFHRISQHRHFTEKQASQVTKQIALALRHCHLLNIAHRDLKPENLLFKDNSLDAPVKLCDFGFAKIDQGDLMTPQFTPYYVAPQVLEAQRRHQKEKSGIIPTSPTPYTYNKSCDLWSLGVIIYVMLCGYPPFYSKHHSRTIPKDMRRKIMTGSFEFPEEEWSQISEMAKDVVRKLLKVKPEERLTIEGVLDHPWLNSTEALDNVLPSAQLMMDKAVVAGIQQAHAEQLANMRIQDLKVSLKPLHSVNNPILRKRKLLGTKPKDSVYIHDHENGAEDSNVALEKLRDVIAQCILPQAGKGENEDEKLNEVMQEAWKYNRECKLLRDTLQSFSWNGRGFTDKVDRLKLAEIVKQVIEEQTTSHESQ

[3] = target: Microtubule-associated serine/threonine-protein kinase 1 (Homo sapiens) (UniProt Q9Y2H9); assay: Selectivity interaction (KinomeScan (DiscoverX)) EUB0000655a MAST1; conditions: at 10 µM
Sequence of Microtubule-associated serine/threonine-protein kinase 1 (Homo sapiens) (Q9Y2H9 whole entry, looked up): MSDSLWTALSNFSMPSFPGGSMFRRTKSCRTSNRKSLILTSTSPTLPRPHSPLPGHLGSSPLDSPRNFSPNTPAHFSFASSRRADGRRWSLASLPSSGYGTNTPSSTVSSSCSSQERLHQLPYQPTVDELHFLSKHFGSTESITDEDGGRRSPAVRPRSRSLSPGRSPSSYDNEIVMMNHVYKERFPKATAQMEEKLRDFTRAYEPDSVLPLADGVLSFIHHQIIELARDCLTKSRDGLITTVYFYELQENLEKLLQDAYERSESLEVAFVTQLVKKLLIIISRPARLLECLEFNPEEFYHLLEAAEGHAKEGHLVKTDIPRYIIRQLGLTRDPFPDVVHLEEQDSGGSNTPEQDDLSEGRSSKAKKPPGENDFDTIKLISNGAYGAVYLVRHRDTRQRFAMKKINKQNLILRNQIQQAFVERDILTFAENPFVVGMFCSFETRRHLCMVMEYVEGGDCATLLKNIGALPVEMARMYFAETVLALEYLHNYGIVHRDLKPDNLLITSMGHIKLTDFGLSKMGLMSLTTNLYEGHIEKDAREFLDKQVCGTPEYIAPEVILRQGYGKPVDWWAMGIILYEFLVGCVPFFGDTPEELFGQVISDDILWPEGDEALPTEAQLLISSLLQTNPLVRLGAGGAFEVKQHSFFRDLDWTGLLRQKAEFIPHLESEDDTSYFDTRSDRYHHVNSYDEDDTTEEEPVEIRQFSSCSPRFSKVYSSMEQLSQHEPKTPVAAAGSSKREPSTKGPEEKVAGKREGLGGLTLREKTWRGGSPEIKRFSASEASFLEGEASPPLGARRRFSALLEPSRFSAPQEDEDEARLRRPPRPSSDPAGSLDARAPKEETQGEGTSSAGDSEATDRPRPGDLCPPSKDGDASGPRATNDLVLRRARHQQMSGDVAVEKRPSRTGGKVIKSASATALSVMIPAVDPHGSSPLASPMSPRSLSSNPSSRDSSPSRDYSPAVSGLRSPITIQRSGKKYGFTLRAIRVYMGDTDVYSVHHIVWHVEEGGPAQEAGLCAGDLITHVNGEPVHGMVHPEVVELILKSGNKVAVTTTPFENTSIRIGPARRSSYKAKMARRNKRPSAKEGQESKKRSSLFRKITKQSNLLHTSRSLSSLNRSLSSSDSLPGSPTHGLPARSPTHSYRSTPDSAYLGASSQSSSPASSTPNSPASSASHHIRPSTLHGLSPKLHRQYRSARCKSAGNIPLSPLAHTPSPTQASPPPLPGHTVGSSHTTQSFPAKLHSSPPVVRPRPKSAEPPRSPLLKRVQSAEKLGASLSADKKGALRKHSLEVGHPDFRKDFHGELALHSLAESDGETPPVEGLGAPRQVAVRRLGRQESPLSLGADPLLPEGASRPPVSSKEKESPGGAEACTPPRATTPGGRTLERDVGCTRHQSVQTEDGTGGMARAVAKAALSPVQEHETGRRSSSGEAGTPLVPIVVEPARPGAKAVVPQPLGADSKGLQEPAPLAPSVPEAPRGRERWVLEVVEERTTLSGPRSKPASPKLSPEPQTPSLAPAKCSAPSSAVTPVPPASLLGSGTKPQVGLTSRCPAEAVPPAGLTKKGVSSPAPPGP

[4] = target: Serine/threonine-protein kinase MARK2 (Homo sapiens) (UniProt Q7KZI7); assay: Selectivity interaction (KinomeScan (DiscoverX)) EUB0000618a MARK2; conditions: at 10 µM
Sequence of Serine/threonine-protein kinase MARK2 (Homo sapiens) (Q7KZI7 whole entry): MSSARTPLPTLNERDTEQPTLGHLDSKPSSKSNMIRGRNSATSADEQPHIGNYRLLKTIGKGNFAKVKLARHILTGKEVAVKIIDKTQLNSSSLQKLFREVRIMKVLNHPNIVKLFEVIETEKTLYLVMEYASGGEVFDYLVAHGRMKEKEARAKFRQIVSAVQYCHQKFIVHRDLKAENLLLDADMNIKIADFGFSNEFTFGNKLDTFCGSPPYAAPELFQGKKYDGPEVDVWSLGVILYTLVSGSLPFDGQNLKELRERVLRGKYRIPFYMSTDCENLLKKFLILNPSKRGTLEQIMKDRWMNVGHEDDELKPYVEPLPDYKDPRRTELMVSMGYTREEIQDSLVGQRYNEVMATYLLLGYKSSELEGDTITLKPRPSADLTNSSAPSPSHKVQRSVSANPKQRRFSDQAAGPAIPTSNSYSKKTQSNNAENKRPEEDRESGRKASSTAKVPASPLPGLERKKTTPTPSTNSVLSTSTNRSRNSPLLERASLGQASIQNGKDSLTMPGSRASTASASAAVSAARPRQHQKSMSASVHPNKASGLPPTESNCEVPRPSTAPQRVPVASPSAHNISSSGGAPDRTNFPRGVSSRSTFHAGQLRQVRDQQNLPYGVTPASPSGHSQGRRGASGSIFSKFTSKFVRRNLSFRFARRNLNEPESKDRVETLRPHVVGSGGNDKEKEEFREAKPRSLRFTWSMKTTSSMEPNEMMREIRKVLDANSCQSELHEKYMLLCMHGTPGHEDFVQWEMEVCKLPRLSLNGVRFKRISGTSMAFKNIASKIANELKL

[5] = target: Receptor-interacting serine/threonine-protein kinase 2 (Homo sapiens, UniProt O43353); assay: Selectivity interaction (KinomeScan (DiscoverX)) EUB0000618a RIPK2; conditions: at 10 µM
Sequence of Receptor-interacting serine/threonine-protein kinase 2 (O43353 whole entry): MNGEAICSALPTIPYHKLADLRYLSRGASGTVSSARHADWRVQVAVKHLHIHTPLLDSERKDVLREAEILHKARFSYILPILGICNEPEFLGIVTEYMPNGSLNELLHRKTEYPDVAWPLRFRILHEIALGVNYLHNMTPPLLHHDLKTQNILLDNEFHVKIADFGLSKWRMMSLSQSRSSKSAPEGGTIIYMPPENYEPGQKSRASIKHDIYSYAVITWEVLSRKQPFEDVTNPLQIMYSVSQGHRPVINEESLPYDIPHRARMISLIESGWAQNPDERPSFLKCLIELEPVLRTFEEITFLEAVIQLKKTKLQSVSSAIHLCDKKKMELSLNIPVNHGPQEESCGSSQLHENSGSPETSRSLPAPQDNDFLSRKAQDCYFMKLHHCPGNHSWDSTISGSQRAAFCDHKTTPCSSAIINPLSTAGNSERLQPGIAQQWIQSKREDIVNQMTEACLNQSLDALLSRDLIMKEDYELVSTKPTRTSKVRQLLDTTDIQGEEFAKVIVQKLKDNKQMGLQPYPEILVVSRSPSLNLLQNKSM

[6] = target: Cyclin-dependent kinase 5 (Homo sapiens, UniProt Q00535); assay: Selectivity interaction (KinomeScan (DiscoverX)) EUB0001619a CDK5; conditions: at 1 µM
Sequence of Cyclin-dependent kinase 5 (Q00535 whole entry, looked up): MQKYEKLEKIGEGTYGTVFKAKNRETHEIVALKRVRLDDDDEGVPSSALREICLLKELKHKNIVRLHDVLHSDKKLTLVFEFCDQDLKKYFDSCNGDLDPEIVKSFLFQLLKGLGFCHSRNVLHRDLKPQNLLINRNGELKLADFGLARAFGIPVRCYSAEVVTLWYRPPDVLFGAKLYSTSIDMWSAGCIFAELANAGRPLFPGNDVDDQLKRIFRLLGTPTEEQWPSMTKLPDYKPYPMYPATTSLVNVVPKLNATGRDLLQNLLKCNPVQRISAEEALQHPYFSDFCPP

Focal adhesion kinase 1 = Focal adhesion kinase 1 (Homo sapiens, UniProt Q05397); assay: Selectivity interaction (KinomeScan (DiscoverX)) EUB0001619a PTK2; conditions: at 1 µM
[7] = target: Rho-associated protein kinase 2 (Homo sapiens, UniProt O75116); assay: Selectivity interaction (Upstate Kinase Profiler service (Millipore)) EUB0000056c ROCK2; conditions: at 1 µM
[8] = target: Tyrosine-protein kinase Blk (Homo sapiens) (UniProt P51451); conditions: at 10 µM
Sequence of Tyrosine-protein kinase Blk (Homo sapiens) (P51451 2-505 limits assumed): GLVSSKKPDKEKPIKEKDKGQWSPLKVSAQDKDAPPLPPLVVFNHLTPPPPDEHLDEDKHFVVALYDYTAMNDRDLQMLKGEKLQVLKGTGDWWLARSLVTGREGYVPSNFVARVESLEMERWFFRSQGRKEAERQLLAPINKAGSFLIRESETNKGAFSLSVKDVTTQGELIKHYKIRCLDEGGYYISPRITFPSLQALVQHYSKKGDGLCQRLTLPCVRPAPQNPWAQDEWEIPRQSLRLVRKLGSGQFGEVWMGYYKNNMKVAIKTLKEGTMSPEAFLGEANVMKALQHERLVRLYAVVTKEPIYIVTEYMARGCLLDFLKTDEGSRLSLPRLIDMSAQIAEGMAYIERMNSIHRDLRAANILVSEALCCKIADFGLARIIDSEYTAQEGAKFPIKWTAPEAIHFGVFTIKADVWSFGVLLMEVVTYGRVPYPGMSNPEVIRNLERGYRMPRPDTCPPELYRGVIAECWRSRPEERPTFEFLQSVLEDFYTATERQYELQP

[9] = target: T2, Serine/threonine-protein kinase Nek9 (Homo sapiens) (UniProt Q8TD19); conditions: at 10 µM
T2 sequence (whole entry): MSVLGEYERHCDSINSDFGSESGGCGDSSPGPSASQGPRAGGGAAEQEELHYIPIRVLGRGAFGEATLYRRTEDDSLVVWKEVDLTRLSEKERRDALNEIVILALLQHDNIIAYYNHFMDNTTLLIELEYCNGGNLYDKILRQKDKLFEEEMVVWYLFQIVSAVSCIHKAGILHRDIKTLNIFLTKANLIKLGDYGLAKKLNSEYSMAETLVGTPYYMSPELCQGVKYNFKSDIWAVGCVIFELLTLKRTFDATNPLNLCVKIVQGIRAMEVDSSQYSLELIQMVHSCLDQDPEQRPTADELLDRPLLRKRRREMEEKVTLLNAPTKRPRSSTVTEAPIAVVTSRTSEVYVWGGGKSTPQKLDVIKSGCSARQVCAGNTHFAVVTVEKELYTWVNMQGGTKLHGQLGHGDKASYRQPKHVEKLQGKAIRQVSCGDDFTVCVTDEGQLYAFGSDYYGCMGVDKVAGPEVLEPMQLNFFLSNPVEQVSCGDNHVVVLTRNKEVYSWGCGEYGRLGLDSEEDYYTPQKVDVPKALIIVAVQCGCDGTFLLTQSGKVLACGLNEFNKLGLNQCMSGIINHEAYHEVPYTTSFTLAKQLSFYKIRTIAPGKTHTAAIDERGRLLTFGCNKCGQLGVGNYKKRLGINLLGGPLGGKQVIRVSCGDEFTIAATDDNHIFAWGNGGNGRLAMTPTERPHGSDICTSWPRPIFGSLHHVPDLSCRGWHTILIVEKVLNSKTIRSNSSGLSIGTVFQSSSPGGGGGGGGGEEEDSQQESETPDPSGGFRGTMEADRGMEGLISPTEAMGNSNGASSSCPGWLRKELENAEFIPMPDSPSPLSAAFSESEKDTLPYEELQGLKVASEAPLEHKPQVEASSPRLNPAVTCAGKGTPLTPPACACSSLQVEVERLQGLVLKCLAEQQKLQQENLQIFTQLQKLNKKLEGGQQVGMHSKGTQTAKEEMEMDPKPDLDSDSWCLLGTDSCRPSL

[10] = target: T3, Tyrosine-protein kinase ITK/TSK (Homo sapiens) (UniProt Q08881); assay: Selectivity interaction (KinomeScan (DiscoverX)) EUB0000229b ITK; conditions: at 10 µM
T3 sequence (whole entry): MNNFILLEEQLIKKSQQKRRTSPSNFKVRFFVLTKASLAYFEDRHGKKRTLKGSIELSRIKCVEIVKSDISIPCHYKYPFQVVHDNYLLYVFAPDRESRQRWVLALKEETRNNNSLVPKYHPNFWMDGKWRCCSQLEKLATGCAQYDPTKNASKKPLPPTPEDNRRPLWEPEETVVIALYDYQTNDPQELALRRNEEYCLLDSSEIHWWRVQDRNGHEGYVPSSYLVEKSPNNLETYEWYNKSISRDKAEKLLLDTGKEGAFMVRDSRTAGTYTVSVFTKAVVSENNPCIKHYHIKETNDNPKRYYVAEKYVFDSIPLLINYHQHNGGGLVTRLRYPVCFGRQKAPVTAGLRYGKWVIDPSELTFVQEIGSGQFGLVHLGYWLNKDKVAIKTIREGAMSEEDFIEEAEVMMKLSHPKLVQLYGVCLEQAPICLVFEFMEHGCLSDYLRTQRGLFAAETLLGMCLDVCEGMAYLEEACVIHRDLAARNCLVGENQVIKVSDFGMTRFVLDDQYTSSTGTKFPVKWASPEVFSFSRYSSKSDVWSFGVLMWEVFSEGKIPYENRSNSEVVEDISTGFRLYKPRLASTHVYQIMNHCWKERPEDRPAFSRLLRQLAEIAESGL

[11] = target: Mast/stem cell growth factor receptor Kit (Homo sapiens, UniProt P10721); assay: Selectivity interaction (Kinase panel (33PanQinase(R) Activity Assay)) EUB0000877a KIT
[12] = target: Mitogen-activated protein kinase kinase kinase kinase 1 (Homo sapiens) (UniProt Q92918); assay: Selectivity interaction (LanthaScreen Eu Kinase Binding Assay) EUB0001632a MAP4K1; conditions: at 10 µM
Sequence of Mitogen-activated protein kinase kinase kinase kinase 1 (Homo sapiens) (Q92918 whole entry, looked up): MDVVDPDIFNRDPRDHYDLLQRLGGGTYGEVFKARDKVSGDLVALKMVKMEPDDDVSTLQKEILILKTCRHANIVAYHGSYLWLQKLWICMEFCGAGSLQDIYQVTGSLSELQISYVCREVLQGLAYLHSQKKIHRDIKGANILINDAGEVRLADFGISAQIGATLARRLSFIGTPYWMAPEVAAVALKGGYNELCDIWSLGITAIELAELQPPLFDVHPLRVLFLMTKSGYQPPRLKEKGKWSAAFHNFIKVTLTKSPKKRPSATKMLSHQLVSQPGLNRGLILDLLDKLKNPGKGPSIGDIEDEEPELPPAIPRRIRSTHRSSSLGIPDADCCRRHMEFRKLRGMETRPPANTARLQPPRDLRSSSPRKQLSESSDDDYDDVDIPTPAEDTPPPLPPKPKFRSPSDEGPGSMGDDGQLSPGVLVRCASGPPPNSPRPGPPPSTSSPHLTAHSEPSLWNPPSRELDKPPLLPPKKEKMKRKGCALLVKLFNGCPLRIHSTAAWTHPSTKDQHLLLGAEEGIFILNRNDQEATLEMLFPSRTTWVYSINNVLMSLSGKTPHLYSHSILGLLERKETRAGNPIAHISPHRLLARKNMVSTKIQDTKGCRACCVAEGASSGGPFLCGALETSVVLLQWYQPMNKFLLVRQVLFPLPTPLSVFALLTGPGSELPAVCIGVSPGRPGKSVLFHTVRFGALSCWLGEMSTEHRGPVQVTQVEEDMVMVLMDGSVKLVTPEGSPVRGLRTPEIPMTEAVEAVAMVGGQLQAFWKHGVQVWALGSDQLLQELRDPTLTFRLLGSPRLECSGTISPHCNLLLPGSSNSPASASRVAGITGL

[13] = target: Serine/threonine-protein kinase 24 (Homo sapiens) (UniProt Q9Y6E0); assay: Selectivity interaction (KinomeScan (DiscoverX)) EUB0000695a STK24; conditions: at 100 nM
Sequence of Serine/threonine-protein kinase 24 (Homo sapiens) (Q9Y6E0 whole entry, looked up): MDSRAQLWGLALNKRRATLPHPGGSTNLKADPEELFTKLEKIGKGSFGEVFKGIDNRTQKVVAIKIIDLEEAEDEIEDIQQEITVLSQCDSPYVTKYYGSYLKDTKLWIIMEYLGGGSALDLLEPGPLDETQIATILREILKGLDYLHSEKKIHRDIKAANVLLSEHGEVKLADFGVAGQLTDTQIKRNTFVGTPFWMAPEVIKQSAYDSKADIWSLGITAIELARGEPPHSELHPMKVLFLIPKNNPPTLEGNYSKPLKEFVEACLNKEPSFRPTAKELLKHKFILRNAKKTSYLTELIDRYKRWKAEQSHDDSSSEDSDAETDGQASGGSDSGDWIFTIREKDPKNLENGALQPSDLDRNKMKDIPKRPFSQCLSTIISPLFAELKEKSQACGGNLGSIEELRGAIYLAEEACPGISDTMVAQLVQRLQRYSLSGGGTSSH

`CN(C)C/C=C/C(=O)Nc1ccc(C(=O)N2CCCC(Nc3ncc(Cl)c(-c4c[nH]c5ccccc45)n3)C2)cc1` (centres undefined) showed a % of control [1] of 96%.
For `CN1Cc2nccc(-c3cn(C)nc3-c3ccc(F)cc3)c2C1=O`, the % of inhibition [2] was -1%.
Work on `CN(C)CCOc1ccc(-c2nc(-c3ccncc3)c(-c3ccc4c(c3)CC/C4=N\O)[nH]2)cc1` yielded a % of control [3] of 100%.
Compound `O[C@H]1CC[C@H](Nc2ncc3nc(Nc4c(F)cc(F)cc4F)n([C@H]4CCOC4)c3n2)CC1` has a % of control [4] of 100% and a % of control [5] of 37%.
Compound `N#Cc1cccc(-c2c[nH]c3ncnc(N4CCOCC4)c23)c1` has a % of control [6] of 92% and a % of control (Focal adhesion kinase 1) of 100%.
`Cc1ccc(-c2ccc3c(ccc4sc5c(c43)NC[C@@H](C)NC5=O)n2)cn1` was tested, and the % of inhibition [7] was -9%.
Compound `Cc1cc([C@@H](C)Nc2ccccc2C(=O)O)c2nc(N3CCOCC3)cc(=O)n2c1` [AZD-6482] has a % of control [8] of 99% and a % of control [9] of 100%.
Compound `COc1cc(N(C)c2ccnc3ccc(C(F)(F)F)cc23)cc(OC)c1OC` has a % binding [10] of 94%.
`CCC(=O)N1CC[C@H](Nc2ncnc3c2CN(c2cnc(OC)c(C(F)(F)F)c2)CC3)C1` [LENIOLISIB] was tested, and the IC50 [11] was > 10 µM.
`Cn1cc(-n2cnc3c(NCc4nc5cc(Cl)c(Cl)cc5[nH]4)nc(N4CCOCC4)nc32)cn1` gave a % of inhibition [12] of -18.9%.
`Cc1cc(F)c(C(=O)Nc2cccc(-c3nncn3C(C)C)n2)cc1-n1cnc(C2CC2)c1` showed a % of control [13] of 100%.
